# Assay results reported in the supplement of paper PMC10307832.
# Assays:
# Assay in all cases: relative viability (nuclei count vs DMSO), 5 days (fraction); higher = more cells survive
# AT-7519 + Phenformin = compound: O=C(NC1CCNCC1)c1n[nH]cc1NC(=O)c1c(Cl)cccc1Cl [AT-7519] + N=C(N)NC(=N)NCCc1ccccc1 [Phenformin] (partner 250 µM)
# In short: (§1)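 Lung cancer cell lines in 1536-well plates were dosed by pin tool the day after seeding, either with one drug alone or with a fixed anchor-drug dose plus five library-drug doses (not always all listed) in √10 steps. After 5 days, cells were fixed and their nuclei stained in one step (final 0.05% Triton X-100, 1% formaldehyde, 1 ug/ml Hoechst), then counted on 4× images. Relative viability is the nuclei count in treated wells divided by that in vehicle wells. Values are medians of duplicate plates.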
# [1] = compound: C1=CC2=C(C=C(C(=C2N=C1)O)N=NC3=CC4=C(C=C3)C=C(C=C4)S(=O)(=O)O)S(=O)(=O)O + CC(C)C[C@H](NC(=O)[C@H](Cc1ccccc1)NC(=O)c1cnccn1)B(O)O [Bortezomib] (partner 0.002 µM)
# In short: as §1
# [2] = compound: C1=CC2=C(C=C(C(=C2N=C1)O)N=NC3=CC4=C(C=C3)C=C(C=C4)S(=O)(=O)O)S(=O)(=O)O + Nc1nc2[nH]cc(CCc3ccc(C(=O)N[C@@H](CCC(=O)O)C(=O)O)cc3)c2c(=O)[nH]1 [Pemetrexed] (partner 0.2 µM)
# In short: as §1
# [3] = compound: C1=CC2=C(C=C(C(=C2N=C1)O)N=NC3=CC4=C(C=C3)C=C(C=C4)S(=O)(=O)O)S(=O)(=O)O + CC1(C)CCC(c2ccc(Cl)cc2)=C(CN2CCN(c3ccc(C(=O)NS(=O)(=O)c4ccc(N[C@H](CCN5CCOCC5)CSc5ccccc5)c(S(=O)(=O)C(F)(F)F)c4)cc3)CC2)C1 [Navitoclax] (partner 0.5 µM)
# In short: as §1
Cell Line,relative viability (AT-7519 + Phenformin; first compound 0.01 µM),relative viability (AT-7519 + Phenformin; first compound 0.03162 µM),relative viability (AT-7519 + Phenformin; first compound 0.3162 µM),relative viability (AT-7519 + Phenformin; first compound 1 µM),relative viability ([1]; first compound 0.08 µM),relative viability ([1]; first compound 0.253 µM),relative viability ([1]; first compound 0.8 µM),relative viability ([1]; first compound 2.53 µM),relative viability ([1]; first compound 8 µM),relative viability ([2]; first compound 0.08 µM),relative viability ([2]; first compound 0.253 µM),relative viability ([2]; first compound 0.8 µM),relative viability ([2]; first compound 2.53 µM),relative viability ([2]; first compound 8 µM),relative viability ([3]; first compound 0.08 µM),relative viability ([3]; first compound 0.253 µM),relative viability ([3]; first compound 0.8 µM),relative viability ([3]; first compound 2.53 µM),relative viability ([3]; first compound 8 µM)
NCI-H661,0.277,0.27,0.249,0.189,0.838,0.838,0.769,0.829,0.809,0.891,0.925,0.893,0.945,0.901,–,–,–,–,–
NCI-H727,0.527,0.584,0.509,0.417,0.917,0.945,0.854,0.853,0.816,–,–,–,–,–,0.358,0.378,0.415,0.453,0.49
NCI-H1299,–,–,–,–,1.06,0.99,0.999,1.02,1.03,–,–,–,–,–,1.09,1.05,0.976,1.08,1.06
NCI-H1395,0.463,0.518,0.443,0.407,–,–,–,–,–,0.814,0.816,0.68,0.763,0.782,1.4,1.26,1.23,1.27,0.924
NCI-H1563,0.66,0.625,0.645,0.651,0.848,0.952,0.959,0.857,0.994,0.776,0.744,0.726,0.79,0.376,–,–,–,–,–
NCI-H1623,0.583,0.567,0.668,0.557,–,–,–,–,–,–,–,–,–,–,–,–,–,–,–
NCI-H1648,–,–,–,–,–,–,–,–,–,–,0.695,–,–,0.855,–,–,–,–,–
NCI-H1703,–,–,–,–,0.316,0.306,0.355,0.39,0.26,–,–,–,–,–,1.02,1.16,1.12,1.27,1.13
NCI-H1793,0.354,0.457,0.434,0.387,–,–,–,–,–,1,0.844,0.799,0.841,0.888,0.48,0.364,–,0.545,0.557
NCI-H1944,0.234,0.207,0.197,0.182,–,–,–,–,–,0.61,0.559,0.57,0.634,0.395,1.13,0.982,0.992,1.06,0.991
NCI-H2170,0.412,0.414,0.423,0.418,–,–,–,–,–,0.288,0.281,0.284,0.266,0.251,0.628,0.477,0.544,0.637,0.707
NCI-H2342,0.595,0.605,0.509,0.512,–,–,–,–,–,0.82,0.791,0.766,0.807,0.765,–,–,–,–,–
SK-MES-1,0.655,0.651,0.63,0.331,–,–,–,–,–,0.972,0.953,0.932,0.942,0.882,1.26,1.16,1.31,1.26,1.19
SW 900,0.697,0.645,0.604,0.196,–,–,–,–,–,0.479,0.49,0.468,0.531,0.481,–,–,–,–,–
